According to patent US20060069132A1, “Azolecarboxamide herbicides” (priority 2004, published 2006):

Experiments:
barnyardgrass [1] = experiment: Test B flooded paddy test; assay type: in vivo, Echinochloa crus-galli; settings: 1000 g ai/ha, visual rating, scale 0 to 100 (0 no effect, 100 complete control), 13 to 15 days
Outline: (§1)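 Paddy species grown to the 2-leaf stage under flooding; blackgrass sprayed postemergence at 2–18 cm (1- to 4-leaf stage). Plants kept in a greenhouse for 13 to 15 days, then visually rated against controls on 0 (no effect) to 100 (complete control).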

[2] = test system: small flower umbrella sedge; experiment: Test B flooded paddy test; assay type: in vivo, Cyperus difformis; settings: 1000 g ai/ha, visual rating, scale 0 to 100 (0 no effect, 100 complete control), 13 to 15 days
Outline: as §1

velvetleaf = experiment: Test B pre-/postemergence herbicide test; assay type: in vivo, Abutilon theophrasti; settings: for Velvetleaf plant response rating: postemergence, visual rating, scale 0 (no effect) to 100 (complete control)
Outline: (§2)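 Plants compared with untreated controls 13–15 days post-treatment and given a visual 0–100 injury score. Applications: preemergence to seeds; postemergence at 1- to 4-leaf (2–18 cm); paddy species flooded, 2-leaf stage. Vehicle non-phytotoxic, surfactant included.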

barnyardgrass [3] = experiment: Test B pre-/postemergence herbicide test; assay type: in vivo, Echinochloa crus-galli; settings: for Barnyardgrass plant response rating: postemergence, visual rating, scale 0 (no effect) to 100 (complete control)
Outline: (§3)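 Test chemicals in a non-phytotoxic solvent mixture with surfactant were applied preemergence to seeded species and postemergence to plants 2-18 cm tall (1- to 4-leaf stage); rice and barnyardgrass were also tested in a flooded paddy at the 2-leaf stage. Visual rating versus controls after 13-15 days in greenhouse, scale 0 (no effect) to 100 (complete control).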

pigweed = experiment: Test B pre-/postemergence herbicide test; assay type: in vivo, Amaranthus retroflexus; settings: for Pigweed plant response rating: postemergence, visual rating, scale 0 (no effect) to 100 (complete control)
Outline: as §2

rice = experiment: Test B flooded paddy test; assay type: in vivo, Oryza sativa; settings: 1000 g ai/ha, visual rating, scale 0 to 100 (0 no effect, 100 complete control), 13 to 15 days
Outline: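 Formulated test chemicals went onto postemergence plants measuring 2 to 18 cm, at one to four leaves. For the paddy assay, species had reached two leaves. Scoring took place 13–15 days later by eye, relative to untreated plants, using 0 for no effect up to 100 for full control.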

blackgrass = experiment: Test B postemergence herbicide test; assay type: in vivo, Alopecurus myosuroides; settings: postemergence, visual rating, scale 0 (no effect) to 100 (complete control)
Outline: as §1

Surinam grass = experiment: Test B pre-/postemergence herbicide test; assay type: in vivo, Urochloa decumbens; settings: for Surinam Grass plant response rating: postemergence, visual rating, scale 0 (no effect) to 100 (complete control)
Outline: as §2

giant foxtail = experiment: Test B pre-/postemergence herbicide test; assay type: in vivo, Setaria faberi; settings: for Foxtail, Giant plant response rating: postemergence, visual rating, scale 0 (no effect) to 100 (complete control)
Outline: as §2

lambsquarters = experiment: Test B pre-/postemergence herbicide test; assay type: in vivo, Chenopodium album; settings: for Lambsquarters plant response rating: postemergence, visual rating, scale 0 (no effect) to 100 (complete control)
Outline: as §2

ducksalad = experiment: Test B flooded paddy test; assay type: in vivo, Heteranthera limosa; settings: 1000 g ai/ha, visual rating, scale 0 to 100 (0 no effect, 100 complete control), 13 to 15 days
Outline: as §1

large crabgrass = experiment: Test B pre-/postemergence herbicide test; assay type: in vivo, Digitaria sanguinalis; settings: for Crabgrass, Large plant response rating: postemergence, visual rating, scale 0 (no effect) to 100 (complete control)
Outline: as §2

cocklebur = experiment: Test B pre-/postemergence herbicide test; assay type: in vivo, Xanthium strumarium; settings: for Cocklebur plant response rating: postemergence, visual rating, scale 0 (no effect) to 100 (complete control)
Outline: as §3

morningglory = experiment: Test B pre-/postemergence herbicide test; assay type: in vivo, Ipomoea coccinea; settings: for Morningglory plant response rating: postemergence, visual rating, scale 0 (no effect) to 100 (complete control)
Outline: as §3

wheat = experiment: Test B postemergence herbicide test; assay type: in vivo, Triticum aestivum; design: key to Wheat plant response rating: 0 = no effect, 100 = complete control; settings: postemergence, visual rating, scale 0 (no effect) to 100 (complete control)
Outline: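 Read-out: visual comparison with controls, scored 0 to 100, where 100 means complete control and 0 no effect. Formulated chemicals were applied postemergence to plants 2–18 cm tall (1- to 4-leaf), or to flooded-paddy plants at the 2-leaf stage, then held 13 to 15 days under glass.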

[4] = 125 g ai/ha, 0 = no effect, 100 = complete control, preemergence
[5] = 500 g ai/ha, visual rating 0-100, 0 no effect, 100 complete control, preemergence

## CCc1nn(C(C)(C)C)cc1C(=O)Nc1cccc(C(C)=NO)c1 [Compound 188]
Barnyardgrass [1]
  Barnyardgrass plant response rating: 60
[2]
  Sedge, Umbrella plant response rating: 80
velvetleaf; [4]
  Velvetleaf plant response rating (0 to 100 scale): 70
velvetleaf; [5]
  Plant response rating, Velvetleaf: 100
velvetleaf; 125 g ai/ha
  Velvetleaf plant response rating: 10
velvetleaf; 500 g ai/ha
  Velvetleaf plant response rating: 20
Barnyardgrass [3]; [4]
  Barnyardgrass plant response rating (0 to 100 scale): 80
Barnyardgrass [3]; [5]
  Plant response rating, Barnyardgrass: 100
Barnyardgrass [3]; 125 g ai/ha
  Barnyardgrass plant response rating: 10
Barnyardgrass [3]; 500 g ai/ha
  Barnyardgrass plant response rating: 20
pigweed; [4]
  Pigweed plant response rating (0 to 100 scale): 40
pigweed; [5]
  Plant response rating, Pigweed: 70
pigweed; 125 g ai/ha
  Pigweed plant response rating: 50
pigweed; 500 g ai/ha
  Pigweed plant response rating: 70
rice
  Rice plant response rating: 70
blackgrass; 125 g ai/ha
  Blackgrass plant response rating: 10
blackgrass; 500 g ai/ha
  Blackgrass plant response rating: 10
Surinam grass; [4]
  Surinam Grass plant response rating (0 to 100 scale): 30
Surinam grass; [5]
  Plant response rating, Surinam Grass: 70
Surinam grass; 125 g ai/ha
  Surinam Grass plant response rating: 10
Surinam grass; 500 g ai/ha
  Surinam Grass plant response rating: 10
Giant foxtail; [4]
  Foxtail, Giant plant response rating (0 to 100 scale): 50
Giant foxtail; [5]
  Plant response rating, Foxtail, Giant: 100
Giant foxtail; 125 g ai/ha
  Foxtail, Giant plant response rating: 10
Giant foxtail; 500 g ai/ha
  Foxtail, Giant plant response rating: 10
lambsquarters; [4]
  Lambsquarters plant response rating (0 to 100 scale): 90
lambsquarters; [5]
  Plant response rating, Lambsquarters: 100
lambsquarters; 125 g ai/ha
  Lambsquarters plant response rating: 60
lambsquarters; 500 g ai/ha
  Lambsquarters plant response rating: 70
ducksalad
  Ducksalad plant response rating: 80
Large crabgrass; [4]
  Crabgrass, Large plant response rating (0 to 100 scale): 100
Large crabgrass; [5]
  Plant response rating, Crabgrass, Large: 100
Large crabgrass; 125 g ai/ha
  Crabgrass, Large plant response rating: 10
Large crabgrass; 500 g ai/ha
  Crabgrass, Large plant response rating: 10
cocklebur; [4]
  Cocklebur plant response rating (0 to 100 scale): 0
cocklebur; [5]
  Plant response rating, Cocklebur: 0
cocklebur; 125 g ai/ha
  Cocklebur plant response rating: 20
cocklebur; 500 g ai/ha
  Cocklebur plant response rating: 90
morningglory; [4]
  Morningglory plant response rating (0 to 100 scale): 10
morningglory; 125 g ai/ha
  Morningglory plant response rating: 20
morningglory; 500 g ai/ha
  Morningglory plant response rating: 60
wheat; 125 g ai/ha
  Wheat plant response rating: 0
wheat; 500 g ai/ha
  Wheat plant response rating: 10
